Measured values published in ChEMBL document CHEMBL1201862, “PubChem BioAssay data set” (2004).
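Cultured in 96-well plates, cells were exposed to test compound for 48 hours across five concentrations. At the GI50, growth is halved.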 Activity calls are given as the source filed them. Cut-off read from the data, not from the text of the source: active = GI50 up to about 1.1 µM and inactive = higher.

Legend:
Assay in all cases: NCI tumour cell line growth inhibition, 48 h
A549 = system: A549
ACHN = system: ACHN
COLO 205 = system: COLO 205
HCC 2998 = system: HCC 2998
HCT-116 = system: HCT-116
HOP-92 = system: HOP-92
LOX IMVI = system: LOX IMVI
NCI-H23 = system: NCI-H23
OVCAR-4 = system: OVCAR-4
OVCAR-5 = system: OVCAR-5
OVCAR-8 = system: OVCAR-8
SK-MEL-5 = system: SK-MEL-5
SN12C = system: SN12C
SW-620 = system: SW-620
U-251 = system: U-251
UO-31 = system: UO-31
NCI-H522 = system: NCI-H522

Measured: GI50

O=C1C(=O)N(c2ccc(Cl)cc2)C(=O)/C(=N/c2cccc3c(=O)[nH][nH]c(=O)c23)C1c1nc2ccccc2o1 (stereo not drawn)
inactive: A549 > 100 µM | ACHN > 100 µM | COLO 205 > 100 µM | HCC 2998 > 100 µM | HCT-116 > 100 µM | HOP-92 84.9 µM | LOX IMVI > 100 µM | NCI-H23 > 100 µM | OVCAR-4 > 100 µM | OVCAR-5 > 100 µM | OVCAR-8 > 100 µM | SK-MEL-5 > 100 µM | SN12C > 100 µM | SW-620 > 100 µM | U-251 > 100 µM | UO-31 > 100 µM

CCOC(=O)C1S/C(=N\c2ccccc2)N=C1C (stereo not drawn)
inactive: A549 55.5 µM | ACHN 39.7 µM | COLO 205 > 100 µM | HCC 2998 > 100 µM | HCT-116 > 100 µM | HOP-92 22.3 µM | LOX IMVI 47.3 µM | NCI-H23 67.3 µM | NCI-H522 44.7 µM | OVCAR-4 68.7 µM | OVCAR-5 96.8 µM | OVCAR-8 > 100 µM | SN12C > 100 µM | SW-620 > 100 µM | U-251 > 100 µM | UO-31 53.3 µM

COc1ccc(/C=N/NC(=O)CSc2nc(-c3ccccc3)c(-c3ccccc3)[nH]2)cc1OC
inactive: A549 45.9 µM | ACHN 31.3 µM | COLO 205 21.2 µM | HCT-116 34.5 µM | HOP-92 42.1 µM | LOX IMVI 20.5 µM | NCI-H23 30.3 µM | NCI-H522 19.7 µM | OVCAR-4 31.3 µM | OVCAR-5 22 µM | OVCAR-8 16.2 µM | SK-MEL-5 17.5 µM | SN12C 30.1 µM | SW-620 29.9 µM | U-251 25.6 µM | UO-31 25.5 µM

CCCOP1(=O)C=C(O)C(Cl)=C(C)C1 (stereo not drawn)
inactive: A549 > 100 µM | ACHN > 100 µM | COLO 205 > 100 µM | HCC 2998 > 100 µM | HCT-116 > 100 µM | HOP-92 > 100 µM | LOX IMVI > 100 µM | NCI-H23 > 100 µM | NCI-H522 > 100 µM | OVCAR-4 > 100 µM | OVCAR-8 > 100 µM | SK-MEL-5 > 100 µM | SN12C > 100 µM | SW-620 > 100 µM | U-251 > 100 µM | UO-31 > 100 µM

CCOC(=O)CC1COc2ccc3c(c21)OCO3 (stereo not drawn)
inactive: A549 > 100 µM | ACHN > 100 µM | COLO 205 > 100 µM | HCC 2998 > 100 µM | HCT-116 > 100 µM | HOP-92 > 100 µM | LOX IMVI > 100 µM | NCI-H23 > 100 µM | OVCAR-4 > 100 µM | OVCAR-5 > 100 µM | OVCAR-8 > 100 µM | SK-MEL-5 > 100 µM | SN12C > 100 µM | SW-620 > 100 µM | U-251 > 100 µM | UO-31 > 100 µM

COC1CC(OS(=O)(=O)c2ccc([N+](=O)[O-])cc2)C(OC(=O)c2ccccc2)C(C)O1 (stereo not drawn)
inactive: A549 > 100 µM | ACHN > 100 µM | COLO 205 > 100 µM | HCC 2998 > 100 µM | HCT-116 > 100 µM | HOP-92 55.2 µM | LOX IMVI > 100 µM | NCI-H23 > 100 µM | NCI-H522 > 100 µM | OVCAR-4 49.9 µM | OVCAR-5 > 100 µM | OVCAR-8 > 100 µM | SK-MEL-5 > 100 µM | SN12C > 100 µM | SW-620 > 100 µM | U-251 > 100 µM

COc1ccc(C2NC3=C(CCCC3)N2)cc1
inactive: A549 > 100 µM | ACHN > 100 µM | COLO 205 34 µM | HCC 2998 > 100 µM | HCT-116 64.9 µM | HOP-92 54.2 µM | LOX IMVI 56.4 µM | NCI-H23 67 µM | NCI-H522 40.2 µM | OVCAR-4 > 100 µM | OVCAR-5 80.2 µM | OVCAR-8 > 100 µM | SK-MEL-5 27.2 µM | SN12C > 100 µM | U-251 53.8 µM | UO-31 77.6 µM

Cc1c(/C=N/N=C/c2[nH]c(C(=O)OC(C)(C)C)c(C)c2C)[nH]c(C(=O)OC(C)(C)C)c1C
inactive: A549 > 100 µM | COLO 205 > 100 µM | HCC 2998 > 100 µM | HCT-116 > 100 µM | HOP-92 67.8 µM | LOX IMVI 61 µM | NCI-H23 > 100 µM | NCI-H522 66.5 µM | OVCAR-4 > 100 µM | OVCAR-5 > 100 µM | OVCAR-8 98.9 µM | SK-MEL-5 > 100 µM | SN12C > 100 µM | SW-620 > 100 µM | U-251 > 100 µM | UO-31 > 100 µM
